In patent US20250017914A1, “6-AZA-QUINOLINE DERIVATIVES AND RELATED USES” (Black Diamond Therapeutics, Inc., priority 2021, published 2025) one finds GI50 data, which are given here for 5 molecules.

What is called GI50 is the concentration that inhibits growth by half. The low end stands for greater sensitivity of the cells, the high end for lower sensitivity of the cells.

For this experiment, the target named is T1, BaF3 BRAF-KIAA1549 fusion cells (Homo sapiens, UniProt P15056).
T1 construct: The BRAF-KIAA1549 fusion mutant was subcloned into pMXs-IRES-Blasticidin (RTV-016, Cell Biolabs, San Diego, CA); No tag given; Q9HCM3 (UPF0606 protein KIAA1549)
T1 sequence (P15056 whole entry, change not shown, the tested form may be a part): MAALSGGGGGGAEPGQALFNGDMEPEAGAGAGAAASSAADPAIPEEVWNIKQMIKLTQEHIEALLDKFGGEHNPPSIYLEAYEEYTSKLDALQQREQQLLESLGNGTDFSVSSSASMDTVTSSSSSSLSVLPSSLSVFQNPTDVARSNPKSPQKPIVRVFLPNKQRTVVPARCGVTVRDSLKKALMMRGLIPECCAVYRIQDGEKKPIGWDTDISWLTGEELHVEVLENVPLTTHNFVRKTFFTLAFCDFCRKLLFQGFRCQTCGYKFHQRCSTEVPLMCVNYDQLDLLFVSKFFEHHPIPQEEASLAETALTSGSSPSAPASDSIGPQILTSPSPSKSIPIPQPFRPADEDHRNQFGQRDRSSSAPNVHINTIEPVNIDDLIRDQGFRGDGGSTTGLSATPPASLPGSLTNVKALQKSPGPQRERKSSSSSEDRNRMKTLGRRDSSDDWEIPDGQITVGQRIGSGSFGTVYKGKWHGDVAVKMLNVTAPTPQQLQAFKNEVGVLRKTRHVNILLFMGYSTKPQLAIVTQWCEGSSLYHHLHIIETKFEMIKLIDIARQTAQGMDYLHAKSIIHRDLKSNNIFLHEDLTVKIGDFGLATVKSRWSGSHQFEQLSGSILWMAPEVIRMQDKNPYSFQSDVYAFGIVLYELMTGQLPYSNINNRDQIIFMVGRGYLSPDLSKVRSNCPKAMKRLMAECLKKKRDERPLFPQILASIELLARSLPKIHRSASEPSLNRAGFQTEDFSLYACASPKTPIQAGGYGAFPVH
The experiment is described as follows: BaF3 BRAF-KIAA1549 fusion cell proliferation assay (CellTiterGlo, 96 hours). In kind it is cell-based. The following applies: Table A2. The method, boiled down:
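BaF3 cells retrovirally transduced with BRAF-KIAA1549 fusion and blasticidin-selected were plated at 7×10^4 c/well in RPMI, 10% heat-inactivated FBS, 1% L-glutamine, and exposed to compound for 96 hours. Growth was read as ATP content by CellTiterGlo luminescence. IC50 was fitted by Levenberg-Marquardt, normalised to DMSO-treated cells.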

In turn, `CNc1cc2c(C#N)cc(-c3cc(NC(=O)c4ccnc(C5(F)CC5)c4)ccc3C)cc2cn1` [Compound 272, N-(3-(5-cyano-3-(methylamino)isoquinolin-7-yl)-4-methylphenyl)-2-(1-fluorocyclopropyl)isonicotinamide] had a GI50 of 0.02 to 0.1 µM.
For the molecule `CNc1cc2c(C#N)cc(-c3cc(NC(=O)c4ccnc(C(F)(F)F)c4)ccc3C)cc2cn1` [Compound 273, N-(3-(5-cyano-3-(methylamino)isoquinolin-7-yl)-4-methylphenyl)-2-(trifluoromethyl)isonicotinamide], the GI50 lay within 0.1 to 0.5 µM.
For `Cc1ncc(NC(=O)c2cc(C(F)(F)F)ccn2)cc1-c1ccc2c3c(ncc2c1)NC(=O)C3` [Compound 274, N-(6-methyl-5-(2-oxo-2,3-dihydro-1H-pyrrolo[2,3-c]isoquinolin-7-yl)pyridin-3-yl)-4-(trifluoromethyl)picolinamide], the GI50 is less than 0.02 µM.
The molecule `Cc1ccc(NC(=O)c2cc(C(C)(C)C#N)ccn2)cc1-c1ccc2c3c(ncc2c1)NC(=O)C3` [Compound 275, 4-(2-cyanopropan-2-yl)-N-(4-methyl-3-(2-oxo-2,3-dihydro-1H-pyrrolo[2,3-c]isoquinolin-7-yl)phenyl)picolinamide] had a GI50 of 0.02 to 0.1 µM.
The result for `Cc1ccc(NC(=O)c2ccnc(C(C)(C)F)c2)cc1-c1ccc2c3c(ncc2c1)NC(=O)C3` [Compound 276, 2-(2-fluoropropan-2-yl)-N-(4-methyl-3-(2-oxo-2,3-dihydro-1H-pyrrolo[2,3-c]isoquinolin-7-yl)phenyl)isonicotinamide] reads less than 0.02 µM.
